Measured values from US20250059183A1, “PYRIDINE[4,3-D]PYRIMIDINE COMPOUND AS TLR7/8 AGONIST” (SHANGHAI VISONPHARMA CO., LTD., priority 2021, published 2025).

Assays:
human TLR8 = target: T1, human TLR8 (Homo sapiens, UniProt Q9NR97); experiment: HEK-Blue hTLR8 SEAP reporter gene agonist assay; type: cell-based; details: HEK-Blue hTLR8 cells, 16 to 22 hours incubation
T1 construct: host or cells: HEK-Blue hTLR8 (HEK293-derived reporter cells)
T1 sequence (Q9NR97 27-1041): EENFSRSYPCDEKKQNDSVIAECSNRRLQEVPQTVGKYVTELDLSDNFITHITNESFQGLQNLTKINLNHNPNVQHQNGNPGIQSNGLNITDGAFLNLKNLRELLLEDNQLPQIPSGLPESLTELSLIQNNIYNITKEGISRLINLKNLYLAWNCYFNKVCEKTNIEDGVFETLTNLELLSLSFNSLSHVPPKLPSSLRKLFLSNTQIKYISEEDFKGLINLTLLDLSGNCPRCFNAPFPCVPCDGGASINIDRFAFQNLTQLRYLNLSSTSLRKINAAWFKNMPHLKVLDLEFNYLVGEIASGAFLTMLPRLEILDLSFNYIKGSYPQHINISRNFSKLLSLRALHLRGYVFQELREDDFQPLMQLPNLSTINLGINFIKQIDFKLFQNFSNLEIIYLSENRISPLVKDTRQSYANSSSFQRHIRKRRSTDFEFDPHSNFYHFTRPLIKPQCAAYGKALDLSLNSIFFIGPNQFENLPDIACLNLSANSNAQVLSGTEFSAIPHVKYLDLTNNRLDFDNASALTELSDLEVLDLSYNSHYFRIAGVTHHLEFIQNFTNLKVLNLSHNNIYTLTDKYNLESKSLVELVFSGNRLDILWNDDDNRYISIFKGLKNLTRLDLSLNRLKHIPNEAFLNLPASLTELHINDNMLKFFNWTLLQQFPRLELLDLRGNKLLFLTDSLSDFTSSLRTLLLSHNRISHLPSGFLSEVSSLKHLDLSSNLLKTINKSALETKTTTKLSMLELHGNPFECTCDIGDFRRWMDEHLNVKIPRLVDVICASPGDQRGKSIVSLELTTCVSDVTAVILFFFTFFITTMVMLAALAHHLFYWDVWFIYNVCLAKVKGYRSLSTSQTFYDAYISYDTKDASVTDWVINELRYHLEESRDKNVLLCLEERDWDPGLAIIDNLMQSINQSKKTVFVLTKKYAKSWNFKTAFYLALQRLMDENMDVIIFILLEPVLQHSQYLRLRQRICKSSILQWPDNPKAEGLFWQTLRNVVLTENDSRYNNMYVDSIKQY
Procedure: (§1) HEK-Blue™ cells that stably express human TLR7 or TLR8 are used to evaluate the agonistic activity of the compounds on TLR7 or TLR8, which is determined by the induction of the expression of SEAP reporter gene under the control of minimum IFN-β promoter fusion to 5×NF-κB and AP-1 binding sites. The assay is conducted as below:
(§2) HEK-Blue™ hTLR7 (Invivogen, 80,000 cells per well) or HEK-Blue™ hTLR8 (Invivogen, 60,000 cells per well) were added to the 96-well cell culture plate, followed by adding of the test compound. The final concentration of the test compound in the medium ranged from […], and was incubated for 16 to 22 hours. According to the manufacturer's instructions, the HEK-Blue assay reagent Quanti-blue (Invivogen) was used to measure SEAP levels in cell media. Optical density at 650 nm (OD650) was measured by Neo2 multifunction plate reader (Bio-tek). The half effective concentration (EC50) was calculated using GraphPad Prism.

human TLR7 = target: T2, human TLR7 (Homo sapiens, UniProt Q9NYK1); experiment: HEK-Blue hTLR7 SEAP reporter gene agonist assay; type: cell-based; details: HEK-Blue hTLR7 cells, 16 to 22 hours incubation
T2 construct: host or cells: HEK-Blue hTLR7 (HEK293-derived reporter cells)
T2 sequence (Q9NYK1 27-1049): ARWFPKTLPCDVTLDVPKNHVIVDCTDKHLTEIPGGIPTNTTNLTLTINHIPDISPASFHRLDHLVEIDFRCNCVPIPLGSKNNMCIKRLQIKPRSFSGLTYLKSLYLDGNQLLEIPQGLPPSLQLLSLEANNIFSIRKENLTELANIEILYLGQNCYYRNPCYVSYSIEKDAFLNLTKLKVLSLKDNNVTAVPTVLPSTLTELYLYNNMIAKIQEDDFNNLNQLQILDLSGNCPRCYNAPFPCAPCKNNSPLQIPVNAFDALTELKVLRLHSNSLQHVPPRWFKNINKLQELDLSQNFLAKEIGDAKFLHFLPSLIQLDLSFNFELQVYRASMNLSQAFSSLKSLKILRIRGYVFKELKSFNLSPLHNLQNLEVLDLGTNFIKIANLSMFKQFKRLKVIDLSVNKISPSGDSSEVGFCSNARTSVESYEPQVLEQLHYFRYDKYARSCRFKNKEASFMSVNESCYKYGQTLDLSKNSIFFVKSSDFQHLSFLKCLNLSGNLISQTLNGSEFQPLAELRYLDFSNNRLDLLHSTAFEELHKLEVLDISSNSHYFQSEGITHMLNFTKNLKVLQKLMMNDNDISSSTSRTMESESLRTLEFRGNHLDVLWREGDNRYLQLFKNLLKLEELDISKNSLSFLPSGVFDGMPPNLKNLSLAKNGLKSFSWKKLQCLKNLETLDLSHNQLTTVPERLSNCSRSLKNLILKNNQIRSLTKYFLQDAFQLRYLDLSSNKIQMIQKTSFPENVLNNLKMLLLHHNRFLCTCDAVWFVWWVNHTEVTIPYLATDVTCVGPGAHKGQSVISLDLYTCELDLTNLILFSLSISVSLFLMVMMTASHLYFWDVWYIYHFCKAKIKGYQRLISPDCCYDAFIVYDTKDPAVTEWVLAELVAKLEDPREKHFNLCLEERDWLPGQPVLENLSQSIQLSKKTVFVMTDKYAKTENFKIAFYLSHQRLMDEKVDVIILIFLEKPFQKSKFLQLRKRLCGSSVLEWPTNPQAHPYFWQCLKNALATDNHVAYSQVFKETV
Procedure: as §1, §2

An EC50 (human TLR8) of 0.058 µM and an EC50 (human TLR7) of 0.081 µM were found for CCCCNc1nc(N)nc2ccn(Cc3ccc(CN4CCCC4)cc3)c(=O)c12 [Compound I-1, 2-amino-4-(butylamino)-6-(4-(pyrrolidin-1-ylmethyl)benzyl)pyrido[4,3-d]pyrimidin-5(6H)-one] in this work.
An EC50 (human TLR8) of 0.107 µM and an EC50 (human TLR7) of 0.064 µM were found for CCCCNc1nc(N)nc2ccn(Cc3ccc(CN4CCCC4)cc3OC)c(=O)c12 [Compound I-2, 2-amino-4-(butylamino)-6-(2-methoxy-4-(pyrrolidin-1-ylmethyl)benzyl)pyrido[4,3-d]pyrimidin-5(6H)-one] in this work.
An EC50 (human TLR8) of 0.077 µM and an EC50 (human TLR7) of 0.085 µM were found for CCCCNc1nc(N)nc2ccn(Cc3ccc(C(=O)N4CCNCC4)cc3)c(=O)c12 [Compound I-14, 2-amino-4-(butylamino)-6-(4-(piperazine-1-carbonyl)benzyl)pyrido[4,3-d]pyrimidin-5(6H)-one] in this work.
An EC50 (human TLR8) of 0.058 µM and an EC50 (human TLR7) of 0.087 µM were found for CCCCNc1nc(N)nc2ccn(Cc3ccc(CN(C)C)cc3)c(=O)c12 [Compound I-35, 2-amino-4-(butylamino)-6-(4-((dimethylamino)methyl)benzyl)pyrido[4,3-d]pyrimidin-5(6H)-one] in this work.
An EC50 (human TLR8) of 0.088 µM and an EC50 (human TLR7) of 0.098 µM were found for CCCCNc1nc(N)nc2ccn(Cc3ccc(CN4CCCC4)cc3F)c(=O)c12 [Compound I-51, 2-amino-4-(butylamino)-6-(2-fluoro-4-(pyrrolidin-1-ylmethyl)benzyl)pyrido[4,3-d]pyrimidin-5(6H)-one] in this work.
An EC50 (human TLR8) of 0.056 µM and an EC50 (human TLR7) of 0.083 µM were found for CCCCNc1nc(N)nc2ccn(Cc3ccc(CN4CC5(COC5)C4)cc3)c(=O)c12 [Compound I-52, 6-(4-((2-oxa-6-azaspiro[3.3]heptan-6-yl)methyl)benzyl)-2-amino-4-(butylamino)pyri do[4,3-d]pyrimidin-5(6H)-one] in this work.
An EC50 (human TLR8) of 0.092 µM and an EC50 (human TLR7) of 0.061 µM were found for CCCCNc1nc(N)nc2ccn(Cc3ccc(C(=O)N4CCN(C(C)C)CC4)cc3)c(=O)c12 [Compound I-53, 2-amino-4-(butylamino)-6-(4-(4-isopropylpiperazine-1-carbonyl)benzyl)pyrido[4,3-d]pyrimidin-5(6H)-one] in this work.
An EC50 (human TLR8) of 0.064 µM and an EC50 (human TLR7) of 0.203 µM were found for CCCCNc1nc(N)nc2ccn(Cc3ccc(C(=O)N4C5CNCC4C5)cc3)c(=O)c12 [Compound I-65, 6-(4-(3,6-diazabicyclo[3.1.1]heptane-6-carbonyl)benzyl)-2-amino-4-(butylamino)pyri do[4,3-d]pyrimidin-5(6H)-one] in this work.
An EC50 (human TLR8) of 0.081 µM and an EC50 (human TLR7) of 0.064 µM were found for CCCCNc1nc(N)nc2ccn(Cc3ccc(C(=O)N4CCNCC4)cc3OC)c(=O)c12 [Compound I-72, 2-amino-4-(butylamino)-6-(2-methoxy-4-(piperazine-1-carbonyl)benzyl)pyrido[4,3-d]pyrimidin-5(6H1)-one] in this work.
An EC50 (human TLR8) of 0.105 µM and an EC50 (human TLR7) of 0.087 µM were found for CCCCNc1nc(N)nc2ccn(Cc3ccc(C(=O)N4CCN(C)CC4)c(OC)c3)c(=O)c12 [Compound I-79, 2-amino-4-(butylamino)-6-(3-methoxy-4-(4-methylpiperazine-1-carbonyl)benzyl)pyrido[4,3-d]pyrimidin-5(6H)-one] in this work.
An EC50 (human TLR8) of 0.047 µM and an EC50 (human TLR7) of 0.068 µM were found for CCCCNc1nc(N)nc2ccn(Cc3ccc(CCN(C)C)cc3)c(=O)c12 [Compound I-90, 2-amino-4-(butylamino)-6-(4-(2-(dimethylamino)ethyl)benzyl)pyrido[4,3-d]pyrimidin-5(6H)-one] in this work.
An EC50 (human TLR8) of 0.046 µM and an EC50 (human TLR7) of 0.065 µM were found for CCCC(CCO)Nc1nc(N)nc2ccn(Cc3ccc(CN4CCCC4)cc3)c(=O)c12 (stereo not drawn) [Compound I-95, 2-amino-4-((1-hydroxyhexan-3-yl)amino)-6-(4-(pyrrolidin-1-ylmethyl)benzyl)pyrido[4,3-d]pyrimidin-5(6H)-one] in this work.
An EC50 (human TLR8) of 0.031 µM and an EC50 (human TLR7) of 0.05 µM were found for CCCC(CCOC(=O)C(F)(F)F)Nc1nc(N)nc2ccn(Cc3ccc(CN4CCCC4)cc3)c(=O)c12 (stereo not drawn) [Compound I-96, 3-((2-amino-5-oxo-6-(4-(pyrrolidin-1-ylmethyl)benzyl)-5,6-dihydropyrido[4,3-d]pyrimidin-4-yl)amino)hexyl 2,2,2-trifluoroacetate] in this work.
An EC50 (human TLR8) of 0.085 µM and an EC50 (human TLR7) of 0.101 µM were found for CCCCNc1nc(N)nc2ccn(Cc3ccc(CN(CCC)CCO)cc3)c(=O)c12 [Compound I-98, 2-amino-4-(butylamino)-6-(4-(((2-hydroxyethyl)(propyl)amino)methyl)benzyl)pyrido[4,3-d]pyrimidin-5(6H)-one] in this work.
An EC50 (human TLR8) of 0.047 µM and an EC50 (human TLR7) of 0.064 µM were found for CCC[C@@H](C)Nc1nc(N)nc2ccn(Cc3ccc(CN4CCCC4)cc3)c(=O)c12 [Compound I-103, (R)-2-amino-4-(pentan-2-ylamino)-6-(4-(pyrrolidin-1-ylmethyl)benzyl)pyrido[4,3-d]pyrimidin-5(6H)-one] in this work.
An EC50 (human TLR8) of 0.049 µM and an EC50 (human TLR7) of 0.055 µM were found for CCC[C@@H](C)Nc1nc(N)nc2ccn(Cc3ccc(C(=O)N4CCNCC4)cc3)c(=O)c12 [Compound I-117, (R)-2-amino-4-(pentan-2-ylamino)-6-(4-(piperazine-1-carbonyl)benzyl)pyrido[4,3-d]pyrimidin-5(6H)-one] in this work.
An EC50 (human TLR8) of 0.052 µM and an EC50 (human TLR7) of 0.04 µM were found for CCC[C@@H](CCO)Nc1nc(N)nc2ccn(Cc3ccc(CN4CCCC4)cc3)c(=O)c12 [Compound I-118, (S)-2-amino-4-((1-hydroxyhexan-3-yl)amino)-6-(4-(pyrrolidin-1-ylmethyl)benzyl)pyrido[4,3-d]pyrimidin-5(6H)-one] in this work.
An EC50 (human TLR8) of 0.053 µM and an EC50 (human TLR7) of 0.046 µM were found for CCCCNc1nc(N)nc2ccn(Cc3ccc(C(=O)N4CCN(CCO)CC4)cc3OC)c(=O)c12 [Compound I-120, 2-amino-4-(butylamino)-6-(4-(4-(2-hydroxyethyl)piperazine-1-carbonyl)-2-methoxybenzyl)pyrido[4,3-d]pyrimidin-5(6H)-one] in this work.
An EC50 (human TLR8) of 0.034 µM and an EC50 (human TLR7) of 0.023 µM were found for CCC[C@@H](C)Nc1nc(N)nc2ccn(Cc3ccc(C(=O)N4CCN(CCO)CC4)cc3OC)c(=O)c12 [Compound I-123, (R)-2-amino-6-(4-(4-(2-hydroxyethyl)piperazine-1-carbonyl)-2-methoxybenzyl)-4-(pentan-2-ylamino)pyrido[4,3-d]pyrimidin-5(6H)-one] in this work.
An EC50 (human TLR7) of 0.065 µM was found for CCC[C@@H](CC)Nc1nc(N)nc2ccn(Cc3ccc(C(=O)N4CCNCC4)cc3)c(=O)c12 [Compound I-137, (R)-2-amino-4-(hexan-3-ylamino)-6-(4-(piperazine-1-carbonyl)benzyl)pyrido[4,3-d]pyrimidin-5(6H)-one] in this work.
